Data: US10413535B2, “Pharmaceutical compositions comprising an integrin ALPHA4 antagonist for use in treating ocular inflammatory conditions” (AXEROVISION, INC., priority 2015, dated 2019)
pKd: −log10 of the molar value.

Key:
[1] = molecular target: T1, Rat α4β1 (Rattus norvegicus, UniProt D3ZMQ3+P49134); experiment: Saturation binding assay in RBL-2H3 cells (SPA); details: [3H]GW559090, RBL-2H3 cells
T1 construct: rat RBL-2H3 cells which express rat α4β1; endogenous in cells; host or cells: RBL-2H3 cells (rat basophilic cell line)
T1 sequence (D3ZMQ3 1-1036): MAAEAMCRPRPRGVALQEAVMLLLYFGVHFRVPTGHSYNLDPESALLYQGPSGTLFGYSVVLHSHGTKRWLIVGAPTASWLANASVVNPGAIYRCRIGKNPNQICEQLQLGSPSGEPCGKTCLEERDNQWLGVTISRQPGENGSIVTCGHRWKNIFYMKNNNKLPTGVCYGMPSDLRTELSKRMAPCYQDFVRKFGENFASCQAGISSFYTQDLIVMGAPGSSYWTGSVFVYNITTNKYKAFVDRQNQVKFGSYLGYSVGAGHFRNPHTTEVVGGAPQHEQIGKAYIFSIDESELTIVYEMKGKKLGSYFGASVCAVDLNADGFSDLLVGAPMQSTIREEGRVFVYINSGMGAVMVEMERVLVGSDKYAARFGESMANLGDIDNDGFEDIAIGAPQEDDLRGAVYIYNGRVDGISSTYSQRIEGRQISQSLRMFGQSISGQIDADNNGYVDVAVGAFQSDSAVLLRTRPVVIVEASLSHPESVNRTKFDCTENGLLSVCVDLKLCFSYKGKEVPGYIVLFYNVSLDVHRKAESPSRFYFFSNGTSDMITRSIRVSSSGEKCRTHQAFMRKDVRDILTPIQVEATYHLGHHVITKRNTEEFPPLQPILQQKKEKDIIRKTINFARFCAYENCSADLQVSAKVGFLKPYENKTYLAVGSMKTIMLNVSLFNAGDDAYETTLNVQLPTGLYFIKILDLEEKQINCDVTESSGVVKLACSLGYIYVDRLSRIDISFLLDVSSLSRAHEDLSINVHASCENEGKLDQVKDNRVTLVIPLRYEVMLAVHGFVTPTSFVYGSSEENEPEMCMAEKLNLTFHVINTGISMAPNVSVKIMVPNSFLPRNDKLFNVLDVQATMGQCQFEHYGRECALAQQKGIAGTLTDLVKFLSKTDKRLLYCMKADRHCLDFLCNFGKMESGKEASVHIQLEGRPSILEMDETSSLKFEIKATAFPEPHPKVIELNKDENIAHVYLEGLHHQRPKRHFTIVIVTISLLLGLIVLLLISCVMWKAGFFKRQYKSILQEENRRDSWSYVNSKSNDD
T1 sequence (P49134 21-799): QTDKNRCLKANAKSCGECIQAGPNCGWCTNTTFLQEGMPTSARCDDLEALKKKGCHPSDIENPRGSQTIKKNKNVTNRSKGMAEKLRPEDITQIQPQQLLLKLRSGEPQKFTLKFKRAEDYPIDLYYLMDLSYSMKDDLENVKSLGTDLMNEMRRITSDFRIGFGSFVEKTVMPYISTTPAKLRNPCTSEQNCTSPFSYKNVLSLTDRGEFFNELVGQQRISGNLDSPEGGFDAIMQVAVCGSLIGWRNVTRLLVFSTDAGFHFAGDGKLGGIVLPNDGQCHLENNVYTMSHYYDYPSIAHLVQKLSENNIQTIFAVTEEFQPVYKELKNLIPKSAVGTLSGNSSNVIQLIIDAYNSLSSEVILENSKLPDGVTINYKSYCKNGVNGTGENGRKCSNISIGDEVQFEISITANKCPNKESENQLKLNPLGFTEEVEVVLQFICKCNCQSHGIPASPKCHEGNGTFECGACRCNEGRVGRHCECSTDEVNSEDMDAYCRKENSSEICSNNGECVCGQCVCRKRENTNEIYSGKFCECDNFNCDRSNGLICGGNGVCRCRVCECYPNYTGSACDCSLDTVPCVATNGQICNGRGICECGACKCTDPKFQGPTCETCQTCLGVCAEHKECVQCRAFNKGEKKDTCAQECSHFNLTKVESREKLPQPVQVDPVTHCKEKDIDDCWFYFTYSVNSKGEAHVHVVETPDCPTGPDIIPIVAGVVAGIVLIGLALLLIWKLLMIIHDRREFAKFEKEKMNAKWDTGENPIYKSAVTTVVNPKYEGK
Experimental: (§1) Jurkat J6 cells (human lymphoblast cell line) were grown as a suspension culture in RPMI 1640 supplemented with FCS (10%) and glutamine (2 mM). RPMI8866 cells (human B lymphoid cell line) were grown as a suspension culture in RPMI 1640 supplemented with FCS (10%) and glutamine (2 mM). RBL-2H3 cells (rat basophilic cell line) were cultured in Eagle's MEM plus Earles salts supplemented with 2 mM L-glutamine, 1 mM sodium pyruvate, 1× non-essential amino acids, 1 mM Na pyruvate 10% heat inactivated foetal calf serum.
The assay buffer contained 50 mM HEPES, 100 mM NaCl, 1 mM MnCl2, pH 7.5 (with NaOH). WGA SPA beads were used at 1 mg/well. Cells were harvested and resuspended in assay buffer and 1 million cells were added per well in a white bottomed plate. Cold GW559090 to give a final assay concentration of 20 μM (to define nonspecific binding) or buffer alone were added and then [3H] GW559090 across a concentration range across the plate was added (nominal [3H] GW559090 concentration range was 0.01 to 200 nM). The final assay volume was 250 μL. The plate was then incubated at 37° C. for 2 h. Disintegrations were counted by scintillation (from the WGA SPA beads) in a Wallac Microbeta plate reader.
The actual amount of [3H] GW559090 added for each concentration of the saturation curve was measured by counting disintegrations per minute from a 50 μL aliquot of the label dilution range.

[2] = molecular target: T2, Human α4β1 (Homo sapiens, UniProt P05556+P13612); experiment: J6 saturation binding assay (filtration) with [3H]GW559090; details: [3H]GW559090, J6 cells; geometric mean and 95% CL, 4 experiments
T2 construct: characterized in human J6 cells which express VLA-4; endogenous in cells; host or cells: Jurkat J6 cells (human lymphoblast cell line)
T2 sequence (P13612 34-1032): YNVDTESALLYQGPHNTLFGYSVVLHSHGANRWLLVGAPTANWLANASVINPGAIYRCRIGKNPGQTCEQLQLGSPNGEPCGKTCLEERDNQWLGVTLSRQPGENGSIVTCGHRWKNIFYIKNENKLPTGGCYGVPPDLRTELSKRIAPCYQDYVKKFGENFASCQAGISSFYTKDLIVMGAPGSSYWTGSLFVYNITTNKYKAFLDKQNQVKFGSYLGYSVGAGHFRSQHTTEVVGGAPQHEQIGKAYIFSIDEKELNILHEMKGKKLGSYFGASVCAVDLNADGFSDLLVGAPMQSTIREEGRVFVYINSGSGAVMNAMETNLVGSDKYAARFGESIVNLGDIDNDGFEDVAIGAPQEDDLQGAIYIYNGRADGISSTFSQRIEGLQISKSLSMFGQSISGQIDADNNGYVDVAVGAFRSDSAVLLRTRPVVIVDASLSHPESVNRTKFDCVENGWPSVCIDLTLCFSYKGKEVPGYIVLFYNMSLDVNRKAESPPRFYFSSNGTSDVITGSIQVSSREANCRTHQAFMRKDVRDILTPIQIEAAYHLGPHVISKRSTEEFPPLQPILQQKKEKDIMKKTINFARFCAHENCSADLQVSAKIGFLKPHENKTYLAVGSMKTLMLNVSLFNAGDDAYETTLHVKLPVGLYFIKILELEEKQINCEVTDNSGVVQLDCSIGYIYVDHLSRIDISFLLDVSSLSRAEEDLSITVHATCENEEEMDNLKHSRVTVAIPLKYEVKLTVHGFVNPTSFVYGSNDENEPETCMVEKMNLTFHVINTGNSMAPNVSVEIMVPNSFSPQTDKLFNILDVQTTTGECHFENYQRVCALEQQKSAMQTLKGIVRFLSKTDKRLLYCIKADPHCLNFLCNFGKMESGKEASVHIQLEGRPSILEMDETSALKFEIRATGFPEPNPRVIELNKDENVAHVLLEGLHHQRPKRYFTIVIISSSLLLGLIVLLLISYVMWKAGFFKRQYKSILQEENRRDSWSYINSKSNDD
T2 sequence (P05556 21-798): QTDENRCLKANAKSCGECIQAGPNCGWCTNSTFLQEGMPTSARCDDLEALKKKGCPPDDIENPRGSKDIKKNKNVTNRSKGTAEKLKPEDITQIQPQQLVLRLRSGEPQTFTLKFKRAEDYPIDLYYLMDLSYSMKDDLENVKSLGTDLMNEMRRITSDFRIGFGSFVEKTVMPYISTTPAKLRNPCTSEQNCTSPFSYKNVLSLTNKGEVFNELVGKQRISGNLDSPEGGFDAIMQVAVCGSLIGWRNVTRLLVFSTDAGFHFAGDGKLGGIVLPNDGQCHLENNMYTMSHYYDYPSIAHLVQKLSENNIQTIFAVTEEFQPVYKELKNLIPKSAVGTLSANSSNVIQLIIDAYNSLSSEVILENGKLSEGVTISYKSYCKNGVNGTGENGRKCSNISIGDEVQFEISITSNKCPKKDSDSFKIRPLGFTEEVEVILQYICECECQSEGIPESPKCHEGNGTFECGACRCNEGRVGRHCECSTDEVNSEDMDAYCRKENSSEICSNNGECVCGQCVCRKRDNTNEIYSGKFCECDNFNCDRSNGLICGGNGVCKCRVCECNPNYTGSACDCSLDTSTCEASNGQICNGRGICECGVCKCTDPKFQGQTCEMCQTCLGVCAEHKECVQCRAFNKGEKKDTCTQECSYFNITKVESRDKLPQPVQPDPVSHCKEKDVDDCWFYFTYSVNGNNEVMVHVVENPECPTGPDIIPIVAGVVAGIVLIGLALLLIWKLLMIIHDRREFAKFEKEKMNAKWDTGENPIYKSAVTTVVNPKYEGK
Experimental: as §1
Binding of the compound of formula I was characterized in human J6 cells which express VLA-4. J6 cells were harvested by centrifugation for 5 minutes at 500 g and resuspended in assay buffer (50 mM HEPES, pH 7.5, 100 mM NaCl, 2 mM glucose, 1 mM MnCl2). Each well contained 1×10^6 cells and either 10 μM cold GW559090, to define the NSBs (non-specific binding), or buffer. […] Bound [3H]GW559090 was separated from free by rapid vacuum filtration through pre-soaked Whatman GF/B filters, followed by three washes in ice-cold buffer, scintillant was then added to filter discs and disintegrations per minute measured on a Beckman Scintillation counter. […] GW559090 added for each concentration of the saturation curve was measured by counting disintegrations from a 50 μL aliquot of the label dilution range.

Compound: Cc1ccccc1OCC(=O)N[C@@H](CC(C)C)C(=O)N[C@@H](Cc1ccc(OC(=O)N2CCC(C(N)=O)CC2)cc1)C(=O)O [GW559090, (2S)-3-[4-({[4-(Aminocarbonyl)-1-piperidinyl]carbonyl}oxy)phenyl]-2-[((2S)-4-methyl-2-{[2-(2-methylphenoxy)acetyl]amino}pentanoyl)amino]propanoic acid]
- pKd [1]: 8.98
- pKd [2]: 9.72
